Experimental data: US8574608B2, “Bactericidal silver surfactant delivery into coating and polymer compositions” (Eastern Michigan Universtity, priority 2007, dated 2013)
Several values for one entry are separate records, joined by “and”; a condition that tells them apart may be missing. Equal entries are not always repeated. Where two headings read alike, the source gives them in different places.

Tests used:
[1] = system: Staphylococcus aureus; experiment: Growth on agar plates containing sodium surfactant; type: cell-based; also: test concentration or dose not given here
[2] = system: Bacillus subtilis; experiment: Growth on agar plates containing sodium surfactant; type: cell-based; also: test concentration or dose not given here
[3] = system: Streptococcus viridans; experiment: Growth on agar plates containing sodium surfactant; type: cell-based
[4] = system: Streptococcus bovis; experiment: Growth on agar plates containing sodium surfactant; type: cell-based
[5] = system: Enterococcus fecalis; experiment: Growth on agar plates containing sodium surfactant; type: cell-based; also: test concentration or dose not given here
[6] = system: Staphylococcus epidermidis; experiment: Growth on agar plates containing sodium surfactant; type: cell-based
[7] = system: Streptococcus pyogenes; experiment: Growth on agar plates containing sodium surfactant; type: cell-based
[8] = system: Streptococcus agalactiae; experiment: Growth on agar plates containing sodium surfactant; type: cell-based; also: test concentration or dose not given here
[9] = system: Micrococcus luteus; experiment: Growth on agar plates containing sodium surfactant; type: cell-based
[10] = system: Streptococcus pneumoniae; type: cell-based
[11] = system: Candida tropicalis; type: cell-based
[12] = system: Gram-negative bacteria; type: cell-based
[13] = system: Gram-positive bacteria; type: cell-based
[14] = system: B. subtilis; type: cell-based, Bacillus subtilis
[15] = system: S. aureus; type: cell-based, Staphylococcus aureus
[16] = agar plates with sodium surfactant, strain ATCC6538, replicates 1-2 or 1-3
[17] = agar plates with sodium surfactant, strain EM24/ATCC25923, replicates 1-2 or 1-3
[18] = agar plates with sodium surfactant, strain ATCC33, replicates 1-2 or 1-3
[19] = agar plates with sodium surfactant, strain EM27, replicates 1-2 or 1-3
[20] = agar plates with sodium surfactant, strain EM8, replicates 1-2 or 1-3
[21] = agar plates with sodium surfactant, strain EM12, replicates 1-2 or 1-3
[22] = agar plates with sodium surfactant, strain EM19, first line, replicates 1-2 or 1-3
[23] = agar plates with sodium surfactant, strain EM19, second line, replicates 1-2 or 1-3
[24] = agar plates with sodium surfactant, strain EM3/ATCC12228, replicates 1-2 or 1-3
[25] = agar plates with sodium surfactant, strain EM14, replicates 1-2 or 1-3
[26] = agar plates with sodium surfactant, strain EM13, replicates 1-2 or 1-3
[27] = agar plates with sodium surfactant, strain EM17, replicates 1-2 or 1-3

Row | Compound | Survival: No Growth/Full Growth [1, 16] | Survival: No Growth/Full Growth [1, 17] | Survival: No Growth/Full Growth [2, 18] | Survival: No Growth/Full Growth [2, 19] | Survival: No Growth/Full Growth [3, 20] | Survival: No Growth/Full Growth [4, 21] | Survival: No Growth/Full Growth [5, 22] | Survival: No Growth/Full Growth [5, 23] | Survival: No Growth/Full Growth [6, 24] | Survival: No Growth/Full Growth [7, 25] | Survival: No Growth/Full Growth [8, 26] | Survival: No Growth/Full Growth [9, 27] | Survival: No Growth/Full Growth [1] | Survival: No Growth/Full Growth [2] | Survival: No Growth/Full Growth [3] | Survival: No Growth/Full Growth [4] | Survival: No Growth/Full Growth [5] | Survival: No Growth/Full Growth [6] | Survival: No Growth/Full Growth [7] | Survival: No Growth/Full Growth [8] | further results
1 | CC(C)CC(C)OC(=O)CC(C(=O)OC(C)CC(C)C)S(=O)(=O)[O-].[Na+] (stereo not shown) [Compound S4] | − | − | − | − | + | − | − | + | − | − | − | − |  |  |  |  |  |  |  |  | 
2 | CCCCCCCCCCCCCOC(=O)CC(C(=O)OCCCCCCCCCCCCC)S(=O)(=O)[O-].[Na+] (stereo not shown) [Compound S6] |  |  |  |  |  |  |  |  |  |  |  |  | + | − and + | + | − | + | + | − | − and + | Survival: No Growth/Full Growth [9]: + and −
3 | CCCCC(CC)COP(=O)([O-])OCCC(CC)CCC.[Na+] (stereo not shown) [Compound S2] | − | − | − | − | − | − | − | − | − | − | − | − |  |  |  |  |  |  |  |  | 
4 | CCCCC(CC)COC(=O)CC(C(=O)OCC(CC)CCCC)S(=O)(=O)[O-].[Na+] (stereo not shown) [sodium bis[2-ethylhexyl]sulfosuccinate] |  |  |  |  |  |  |  |  |  |  |  |  | − | − | − | − | − | − | − | − | Survival: No Growth/Full Growth [10]: −; Survival: No Growth/Full Growth [11]: −; effect on the yeast Candida tropicalis [11]: killed; Survival: No Growth/Full Growth [9]: −; response of Gram-negative bacteria [12]: resistant; effect on all Gram-positive bacteria tested [13]: killed; killing of B. subtilis [14]: killed all; killing of S. aureus [15]: killed all
5 | CCCCC(CC)COC(=O)CC(C(=O)OCC(CC)CCCC)S(=O)(=O)[O-].[Na+] (stereo not shown) [Compound S1] | − | − | − | − | − | − | − | − | − | − | − | − |  |  |  |  |  |  |  |  | 
6 | O=C(CC(C(=O)OC1CCCCC1)S(=O)(=O)[O-])OC1CCCCC1.[Na+] (stereo not shown) [Compound S5] | + | + | − and + | + | + | − | + | + | + | − | − and + | − (2×) and + |  |  |  |  |  |  |  |  | 
